From patent publication US9328118B2, “Nitrogen-containing bicyclic aromatic heterocyclic compound” (ASTELLAS PHARMA INC., priority 2012, dated 2016)
pIC50: −log10 of the molar value.

Assays:
human cathepsin S = human cathepsin S (Homo sapiens (Human), UniProt P25774); test: In vitro human cathepsin S inhibitory activity (VVR-AMC fluorescence); type: biochemical; settings: human cathepsin S enzyme, substrate VVR-AMC 40 μM, pH 4.5, 37° C.; read-out: IC50 value of the human cathepsin S inhibitory activity (Data 1)
Protocol: Test Example 1 Measurement of a In Vitro Human Cathepsin S Inhibitory Activity
5 μL of a human cathepsin S enzyme (R&D1183-CY-010) was added to a 96-well plate so as to be 20 ng/well. […] A reaction rate at the time of not adding an enzyme in which the test compound was not added and a reaction rate at the time of adding an enzyme in which the test compound was not added were set to 100% inhibition and 0% inhibition, respectively, then, an inhibition rate at each concentration was determined, and IC50 values were calculated by a linear regression method. In the Table, Ex represents Example compound No., and Data 1 represents an IC50 value (nM) of the human cathepsin S inhibitory activity.

[1] = tested on: MHC class II expression in B220 positive B cells of mouse spleen cells; test: In vitro MHC class II expression inhibitory effect using mouse spleen cells (LPS-stimulated B cells, flow cytometry); type: cell-based, C57BL/6 mice; settings: B-cell, C57BL/6 spleen cells, LPS 2 μg/mL, 48 hours, B220 positive B cells, read-out: IC50 value of MHC class II expression inhibition (Data 2)
Protocol: Test Example 2 Evaluation of In Vitro MHC Class II Expression Inhibitory Effect Using Mouse Spleen Cells (Cell Evaluation System)
In antigen-presenting cells, the inhibition of cathepsin S inhibits the expression of MHC class II molecules. […] For an increased expression of MI-IC class II in B cells, the inhibitory effect of the compound represented by formula (I) was examined.
First, spleen cells collected from C57BL/6 mice were seeded in a 96-well plate so as to be a 1×10^5 cells/well, then, 5-fold dilution of 10 mM DMSO solution of the test compound was serially performed with RPMI 1640 medium (including 10% fetal bovine serum (FCS), 5×10^−5 M 2-mercaptoethanol, 50 IU/mL penicillin and 50 μg/mL streptomycin) nine times such that the final concentration becomes 0.026 nM to 10 μM, and the resultant products were added thereto (the final DMSO concentration was 0.1%). At the same time, LPS (Sigma L4005) was added to the wells such that the final concentration becomes 2 μg/mL, and culture was performed at 37° C. for 48 hours in 5% CO2. After culturing, the cells were stained at 4° C. for 20 minutes with PE-labeled streptavidin (BD BIOSCIENCE 554061) and biotin-labeled YAe antibody (EBIOSCIENCE 13-5741-85) together with FITC-labeled anti-mouse B220 antibody (BD BIOSCIENCE 553088), and an expression level (fluorescence intensity of YAe-biotin/streptavidin-PE) of MHC class II to which Ea peptide in B220 positive B cells was bonded was measured using a flow cytometry system (Guava EasyCyte Plus System, manufactured by Millipore Corporation). A value at the time of unstimulation of LPS in which the test compound was not added and a value at the time of stimulation of LPS in which the test compound was not added were set to 100% inhibition and 0% inhibition, respectively, then, an inhibition rate at each concentration was determined, and IC50 values were calculated by a linear regression method. In the Table, Ex represents Example compound No., and Data 2 represents an IC50 value (nM).

[2] = tested on: OVA specific IgG antibody titer; test: Antibody production inhibitory effect in mouse OVA-induced antibody production model; type: in vivo, BALB/c male mice
Protocol: Test Example 4 Evaluation of Antibody Production Inhibitory Effect in Mouse OVA-Induced Antibody Production Model
Evaluation of an antibody production inhibitory effect in vivo was performed.
The BALB/c male mice were sensitized by intraperitoneal administration of 200 μL of an emulsion consisting of 100 μg of ovalbumin (OVA) (SIGMA A5503) and 100 μL of a complete Freund's adjuvant (CFA) (DIFCO 231131) (Day 0), and a week after that, the mice were sensitized by intraperitoneal administration of 200 μL of an emulsion consisting of 50 μg of OVA and 100 μL of an incomplete Freund's adjuvant (IFA) (DIFCO 263910) (Day 7). The test compound dissolved in a vehicle (30% propylene glycol solvent (propylene glycol:HCO40:Tween 80=4:2:1)/HCl (2 equivalents with respect to the test compound)/water) was orally administered (dose: 0.3 mg/kg, 1 mg/kg, or 3 mg/kg) at 10 mL/kg/day from Day 0 to Day 14, and an OVA specific IgG antibody titer in blood plasma at Day 14 was evaluated. Measurement of antibody titer was carried out using a blood plasma sample which was diluted 40,000 times by an ELISA method, and the antibody titer was represented as a ratio with respect to control blood plasma. An antibody titer of a mouse to which the vehicle was orally administered at 10 mL/kg/day from Day 0 to Day 14 was set to 0% inhibition, an antibody titer of a normal mouse to which the vehicle was orally administered at 10 mL/kg/day from Day 0 to Day 14 and which was not sensitized with OVA was set to 100% inhibition, and the inhibition rate at the time of the test compound administration was calculated.

[3] = tested on: MHC class II expression in peripheral blood B cells; test: Ex vivo MHC class II expression inhibitory effect using mouse peripheral blood after oral administration; type: in vivo, C57BL/6 mice; settings: blood collected after 3 hours, LPS 15 hours
Protocol: Test Example 3 Evaluation of Ex Vivo MHC Class II Expression Inhibitory Effect Using Mouse Peripheral Blood
The expression inhibitory effect of MHC class II molecules was evaluated in an ex vivo system.
The test compound was orally administered into C57BL/6mice, and the inhibitory effect with respect to the increased expression of MHC class II in B cells in peripheral blood after oral administration was examined. That is, 10 mL/kg of the test compound dissolved in a vehicle (30% propylene glycol solvent (propylene glycol:cured castor oil (HCO40):Tween 80=4:2:1)/HCl (2 equivalents with respect to the test compound)/water) was orally administered (dose: 0.1 mg/kg, 0.3 mg/kg, 1 mg/kg, or 3 mg/kg) to a C57BL/6mice, and the peripheral blood was collected after 3 hours. 10 μL of RPMI 1640 medium (including 5×10^−5 M of 2-mercaptoethanol, 50 IU/mL of penicillin, and 50 μg/mL of streptomycin) or 10 μL of LPS adjusted with the medium such that the final concentration becomes 100 μg/mL was added to 90 μL of the peripheral blood, and culture was performed at 37° C. for 15 hours in 5% CO2. After culturing, the cells were stained at 4° C. for 30 minutes with FITC-labeled anti-mouse I-A/I-E antibody (BD BIOSCIENCE 553623) and PE-labeled B220 antibody (BD BIOSCIENCE 553090), and hemolysis and fixation were performed at 37° C. for 10 minutes using a buffer (BD BIOSCIENCE Phosflow Lyse/Fix Buffer 558049). After washing, using a flow cytometry system (FACSCanto II, manufactured by BD BIOSCIENCE), an expression level of MHC class II on a B220 positive B cell surface was measured by using a fluorescence intensity of FITC (hereinafter, referred to as MFI) as an indicator. The difference between a MFI at the time of stimulation of LPS and a MFI at the time of unstimulation of LPS was set to a ΔMFI, a ΔMFI of a mouse in which 10 mL/kg of only vehicle was administered was set to 1, and the inhibition rate of ΔMFI by the test compound administration was calculated.

SLE spontaneous model = test: SLE onset inhibitory effect in spontaneous model using NZB/W F1 mouse; type: in vivo, NZB/W F1 female mice; settings: oral 0.3 mg/kg once a day from 20 weeks old, at 41 weeks old
Protocol: NZB/W F1 mice are used as a model of SLE that spontaneously develops a condition close to humans ([…] et al, Proceedings of the university otago medical school (New Zealand), 1961, Vol. 39, p. 3; Advances in Immunology, 1985, Vol. 37, p. 269-390; Perry et al, Journal of Biomedicine and Biotechnology, 2011, Article ID 271694, Review Article). […] At this time, an individual having greater than 100 mg/dL of urine protein was excluded. […] Furthermore, a pathology evaluation of kidney tissue in the above Test 5 was performed. […] In accordance with histological classification of lupus nephritis by WHO, a histopathological image was classified into Class I (normal glomerulus), Class II (mesangium lesion), Class III (focal segmental glomerulonephritis), Class IV (diffuse glomerulonephritis), and Class VI (progressive sclerosing lupus nephritis).

[4] = oral 1 mg/kg daily Day 0 to Day 14, titer at Day 14

Sequence of human cathepsin S (P25774 115-331): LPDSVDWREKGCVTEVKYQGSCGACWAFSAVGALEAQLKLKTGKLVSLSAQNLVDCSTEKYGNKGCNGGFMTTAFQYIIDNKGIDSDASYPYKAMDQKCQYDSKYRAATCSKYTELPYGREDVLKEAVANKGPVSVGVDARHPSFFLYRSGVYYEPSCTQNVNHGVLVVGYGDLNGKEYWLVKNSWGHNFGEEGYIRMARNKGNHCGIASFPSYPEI

pIC50 (human cathepsin S) | pIC50 [1] | SMILES | inhibition of OVA specific IgG antibody titer in blood plasma [2, 4] | inhibition rate of ΔMFI (increased expression of MHC class II in peripheral blood B cells) ([3]; oral 0.3 mg/kg) | inhibition rate of ΔMFI (increased expression of MHC class II in peripheral blood B cells) ([3]; oral 1 mg/kg) | inhibition of OVA specific IgG antibody titer in blood plasma ([2]; oral 0.3 mg/kg daily Day 0 to Day 14, titer at Day 14) | average anti-dsDNA IgG antibody titer (SLE spontaneous model; 10 cases, ELISA) | urine protein (SLE spontaneous model; all individuals of 10 cases)
8.64 | 8.92 | Cl.Cn1ccc2c(-c3ccc(OCCC4CCNCC4)c(C(F)(F)F)c3)nc(C#N)nc21 [Example 2, 7-methyl-4-{4-[2-(piperidin-4-yl)ethoxy]-3-(trifluoromethyl)phenyl}-7H-pyrrolo[2,3-d]pyrimidine-2-carbonitrile monohydrochloride] | 61±10% | – | – | – | – | –
– | – | Cl.Cn1cnc2c(-c3cnc(OCCC4CCNCC4)c(C(F)(F)F)c3)nc(C#N)nc21 [Example 28, 9-methyl-6-{6-[2-(piperidin-4-yl)ethoxy]-5-(trifluoromethyl)pyridin-3-yl}-9H-purine-2-carbonitrile monohydrochloride] | 83±2% | 40±1.4% | – | – | – | –
– | 9.21 | CCN1CCC(CCOc2ncc(-c3nc(C#N)nc4c3ncn4C)cc2C(F)(F)F)CC1 [Example 39, 6-{6-[2-(1-ethylpiperidin-4-yl)ethoxy]-5-(trifluoromethyl)pyridin-3-yl}-9-methyl-9H-purine-2-carbonitrile] | – | – | 61±1.2% | 74±8% | 9,263±1,700 mU/mL | ≤ 100 mg/dL
– | 9.21 | CN1CCC[C@@H]1C(=O)N1CC[C@@H](OCCOc2ncc(-c3nc(C#N)nc4c3ccn4C)cc2C(F)(F)F)C1 [Example 158] | – | 59±1.5% | – | – | – | –
